Test results as given in patent publication US7423054B2, “Therapeutic pyrazolo[3,4-b]pyridines and indazoles” (Warner Lambert Company LLC, priority 2004, dated 2008).
Counter-ions that a name gives are not always drawn.

Columns and labels:
[1] = target: T1, human serotonin transporter (hSERT) (Homo sapiens, UniProt P31645); test: hSERT receptor binding ([125I]-RTI-55 displacement, membranes of transfected HEK-293 cells); settings: HEK-293 membranes, Ki from IC50 by Cheng-Prusoff, read-out: SERT Ki
T1 construct: expressed in transfected cells; host or cells: HEK-293 cells (membrane preparation)
Method: (§1) The ability of the compounds of the present invention to inhibit a norepinephrine transporter and/or a serotonin transporter can be determined using conventional radioligand receptor transport assays. The receptors can be heterologously expressed in cell lines and experiments conducted in membrane preparations from the cell lines that express a norepinephrine transporter and/or a serotonin transporter.
(§2) Cell pastes of HEK-293 cells transfected with a human serotonin transporter cDNA were prepared. The cell pastes were resuspended in 400 to 700 ml of Krebs-HEPES assay buffer (25 mM HEPES, 122 mM NaCl, 3 mM KCl, 1.2 mM MgSO4, 1.3 mM CaCl2, and 11 mM glucose, pH 7.4) with a Polytron homogenizer at Setting 7 for 30 seconds. Aliquots of membranes (˜2.5 mg/ml protein) were stored in liquid nitrogen until used.
Assays were set up in FlashPlates pre-coated with 0.1% PEI in a total volume of 250 μl containing: test compound (10^−5M to 10^−12M), cell membranes, and 50 pM [^125I]-RTI-55 (Perkin Elmer, NEX-272; specific activity 2200 Ci/mmol). The reaction was incubated and gently agitated for 90 minutes at room temperature, and terminated by removal of assay volume. Plates were covered, and bound [^125I]-RTI-55 was determined using a Wallac Trilux Beta Plate Counter. Test compounds were run in duplicate, and specific binding was defined as the difference between binding in the presence and absence of 10 μM citalopram.
Excel and GraphPad Prism software were used for data calculation and analysis. IC50 values were converted to Ki values using the Cheng-Prusoff equation. The Ki values (nM) for the hSERT are reported below in Table 11: […]

[2] = target: T2, human norepinephrine transporter (hNET) (Homo sapiens, UniProt P23975); test: hNET receptor binding ([125I]-RTI-55 displacement, membranes of transfected HEK-293 cells); settings: HEK-293 membranes, Ki from IC50 by Cheng-Prusoff, read-out: NET Ki
T2 construct: expressed in transfected cells; host or cells: HEK-293 cells (membrane preparation)
Text: as §1
as §2, with “norepinephrine” for “serotonin”, “setting” for “Setting”, “(5” for “(˜2.5”
The binding assay was set up in Beckman deep-well polypropylene plates with a total volume of 250 μl containing: test compound (10^−5M to 10^−12M), cell membranes, and 50 pM [^125I]-RTI-55 (Perkin Elmer, NEX-272; specific activity 2200 Ci/mmol). The reaction was incubated by gentle agitation for 90 minutes at room temperature and was terminated by filtration through Whatman GF/C filter plates using a Brandel 96-well plate harvester. Scintillation fluid (100 μl) was added to each well, and bound [^125I]-RTI-55 was determined using a Wallac Trilux Beta Plate Counter. Test compounds were run in duplicate, and specific binding was defined as the difference between binding in the presence and absence of 10 μM desipramine.
Excel and GraphPad Prism software were used for data calculation and analysis. IC50 values were converted to Ki values using the Cheng-Prusoff equation. The Ki values (nM) for the hNET are reported below in Table 11.

T2 sequence (P23975 whole entry): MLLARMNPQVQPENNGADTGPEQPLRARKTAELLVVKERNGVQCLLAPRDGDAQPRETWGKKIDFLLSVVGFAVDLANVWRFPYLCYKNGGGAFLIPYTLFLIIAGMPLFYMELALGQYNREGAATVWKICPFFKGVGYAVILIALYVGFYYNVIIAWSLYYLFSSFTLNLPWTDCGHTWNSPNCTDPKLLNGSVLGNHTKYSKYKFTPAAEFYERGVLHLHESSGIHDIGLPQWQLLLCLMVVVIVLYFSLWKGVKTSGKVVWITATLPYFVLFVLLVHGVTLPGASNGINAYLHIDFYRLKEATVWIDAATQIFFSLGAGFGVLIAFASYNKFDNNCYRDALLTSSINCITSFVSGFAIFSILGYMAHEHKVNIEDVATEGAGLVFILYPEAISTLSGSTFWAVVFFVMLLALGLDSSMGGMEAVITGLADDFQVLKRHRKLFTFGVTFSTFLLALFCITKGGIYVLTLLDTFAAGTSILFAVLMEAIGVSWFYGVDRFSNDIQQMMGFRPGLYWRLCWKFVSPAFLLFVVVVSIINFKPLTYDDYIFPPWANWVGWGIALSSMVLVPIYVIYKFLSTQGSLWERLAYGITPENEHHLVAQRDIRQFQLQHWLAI
T1 sequence (P31645 whole entry): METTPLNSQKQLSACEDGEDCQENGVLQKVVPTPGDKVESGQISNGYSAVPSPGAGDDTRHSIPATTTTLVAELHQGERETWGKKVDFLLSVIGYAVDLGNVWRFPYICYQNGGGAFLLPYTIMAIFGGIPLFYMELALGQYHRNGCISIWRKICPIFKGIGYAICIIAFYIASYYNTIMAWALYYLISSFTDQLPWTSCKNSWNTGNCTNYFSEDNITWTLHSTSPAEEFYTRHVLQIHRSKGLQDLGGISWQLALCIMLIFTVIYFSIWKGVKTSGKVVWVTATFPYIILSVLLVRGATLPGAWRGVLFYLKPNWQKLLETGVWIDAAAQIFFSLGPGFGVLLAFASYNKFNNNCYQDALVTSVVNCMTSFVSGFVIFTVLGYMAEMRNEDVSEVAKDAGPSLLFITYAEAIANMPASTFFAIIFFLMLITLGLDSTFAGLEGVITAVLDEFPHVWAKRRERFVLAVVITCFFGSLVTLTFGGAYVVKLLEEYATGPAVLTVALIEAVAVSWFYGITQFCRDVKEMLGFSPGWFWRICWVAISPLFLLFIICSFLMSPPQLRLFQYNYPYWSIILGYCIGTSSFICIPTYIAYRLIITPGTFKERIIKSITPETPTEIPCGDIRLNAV

Compound	Ki [1] [nM]	Ki [2] [nM]
c1ccc(-n2nc(OC3CCCNC3)c3ccccc32)cc1 (racemic) [Example 15, (±)-1-Phenyl-3-(piperidin-3-yloxy)-1H-indazole hydrochloride]	1460	329
c1ccc(-n2nc(OCC3CCCNC3)c3ccccc32)cc1 (racemic) [Example 16, (±)-1-Phenyl-3-(piperidin-3-ylmethoxy)-1H-indazole hydrochloride]	224	21.5
Clc1ccc(-n2nc(OCC3CCCNC3)c3ccccc32)cc1 (racemic) [Example 68, (±)-1-(4-Chloro-phenyl)-3-(piperidin-3-ylmethoxy)-1H-indazole hydrochloride]	359	219
Clc1ccc2c(c1)c(OCC1CCCNC1)nn2-c1ccccc1 (racemic) [Example 69, (±)-5-Chloro-1-phenyl-3-(piperidin-3-ylmethoxy)-1H-indazol hydrochloride]	339	98
Fc1ccc2c(OCC3CCCNC3)nn(-c3ccccc3F)c2c1 (racemic) [Example 70, (±)-6-Fluoro-1-(2-fluoro-phenyl)-3-(piperidin-3-ylmethoxy)-1H-indazole hydrochloride]	200	33.6
Fc1ccccc1-n1nc(OC[C@@H]2CNCCO2)c2ccccc21 [Example 2, (S)-(+)-1-(2-Fluorophenyl)-3-(morpholin-2-ylmethoxy)-1H-indazole maleate]	1620	9.28
Fc1ccc(-n2nc(OC[C@@H]3CNCCO3)c3ccccc32)c(F)c1 [Example 3, (S)-(+)-1-(2,4-Difluorophenyl)-3-(morpholin-2-ylmethoxy)-1H-indazole maleate]	832	3.4
Fc1ccccc1-n1nc(OCC2CCCNC2)c2ccccc21 (stereo not drawn) [Example 4, 1-(2-Fluorophenyl)-3-(piperidin-3-ylmethoxy)-1H-indazole hydrochloride]	270	3
Fc1ccccc1-n1nc(OC[C@H]2CNCCO2)c2ccccc21 [Example 5, (R)-(−)-1-(2-Fluorophenyl)-3-(morpholin-2-ylmethoxy)-1H-indazole hydrochloride]	1610	84
Fc1ccccc1-n1nc(OC[C@H]2CCCNC2)c2ccccc21 [Example 6, (S)-(−)-1-(2-Fluorophenyl)-3-(piperidin-3-ylmethoxy)-1H-indazole hydrochloride]	192	1.65
Fc1ccccc1-n1nc(OC[C@@H]2CCNC2)c2ccccc21 [Example 11, (R)-1-(2-Fluoro-phenyl)-3-(pyrrolidin-3-ylmethoxy)-1H-indazole hydrochloride]	279	14
Fc1ccccc1-n1nc(O[C@H]2CCCN2)c2ccccc21 [Example 12, (S)-(−)-1-(2-Fluorophenyl)-3-(pyrrolidin-2-yloxy)-1H-indazole hydrochloride]	1010	12.5
Fc1ccccc1-n1nc(O[C@@H]2CCCN2)c2ccccc21 [Example 13, (R)-(+)-1-(2-Fluorophenyl)-3-(pyrrolidin-2-yloxy)-1H-indazole maleate]	5290	131
c1ccc(-n2nc(OC[C@H]3CCCNC3)c3ccccc32)cc1 [Example 19, (S)-(−)-1-Phenyl-3-(piperidin-3-ylmethoxy)-1H-indazole hydrochloride]	486	5.43
c1ccc(-n2nc(OC[C@@H]3CNCCO3)c3ccccc32)cc1 [Example 21, (S)-(+)-3-(Morpholin-2-ylmethoxy)-1-phenyl-1H-indazole hydrochloride]	1120	12.5
Fc1ccc(-n2nc(OC[C@@H]3CNCCO3)c3ccccc32)cc1F [Example 23, (S)-1-(3,4-Difluoro-phenyl)-3-(morpholin-2-ylmethoxy)-1H-indazole hydrochloride]	1530	11.5
Fc1cccc(F)c1-n1nc(OC[C@H]2CCCNC2)c2ccccc21 [Example 25, (S)-1-(2,6-Difluoro-phenyl)-3-(piperidin-3-ylmethoxy)-1H-indazole maleate]	670	3.2
Fc1ccc(F)c(-n2nc(OC[C@@H]3CNCCO3)c3cc(F)ccc32)c1 [Example 26, (S)-1-(2,5-Difluoro-phenyl)-5-fluoro-3-(morpholin-2-ylmethoxy)-1H-indazole maleate]	346	6.9
Fc1ccc(F)c(-n2nc(OC[C@@H]3CNCCO3)c3ccccc32)c1 [Example 28, (S)-(+)-1-(2,5-Difluorophenyl)-3-(morpholin-2-ylmethoxy)-1H-indazole maleate]	640	5.1
Clc1cc(Cl)cc(-n2nc(OC3CCNCC3)c3ccccc32)c1 [Example 29, 1-(3,5-Dichloro-phenyl)-3-(piperidin-4-yloxy)-1H-indazole hydrochloride]	342	4050
Fc1ccc(-n2nc(OC[C@H]3CCCNC3)c3ccccc32)cc1F [Example 33, (S)-1-(3,4-Difluoro-phenyl)-3-(piperidin-3-ylmethoxy)-1H-indazole hydrochloride]	198	19.2

Continued, values first:

Ki [1] [nM]	Ki [2] [nM]	Compound
28	151	c1ccc(-n2nc(OCC3CCNCC3)c3ccccc32)cc1 (racemic) [Example 17, (±)-1-Phenyl-3-(piperidin-4-ylmethoxy)-1H-indazole hydrochloride]
120	16.9	Fc1cccc(-n2nc(OCC3CCCNC3)c3ccccc32)c1 (racemic) [Example 66, (±)-1-(3-Fluoro-phenyl)-3-(piperidin-3-ylmethoxy)-1H-indazole hydrochloride]
191	19.7	Fc1ccc(-n2nc(OCC3CCCNC3)c3ccccc32)cc1 (racemic) [Example 67, (±)-1-(4-Fluoro-phenyl)-3-(piperidin-3-ylmethoxy)-1H-indazole hydrochloride]
172	49.5	Fc1ccc2c(c1)c(OCC1CCCNC1)nn2-c1ccc(F)c(F)c1 (racemic) [Example 96, (±)-1-(3,4-Difluoro-phenyl)-5-fluoro-3-(piperidin-3-ylmethoxy)-1H-indazole hydrochloride]
36.1	14.3	Fc1ccc(-n2nc(OC3CCNCC3)c3ccccc32)c(F)c1 [Example 10, 1-(2,4-Difluoro-phenyl)-3-(piperidin-4-yloxy)-1H-indazole hydrochloride]
121	95.5	c1ccc(-n2nc(OC[C@@H]3CCCNC3)c3ccccc32)cc1 [Example 18, (R)-(+)-1-Phenyl-3-(piperidin-3-ylmethoxy)-1H-indazole hydrochloride]
68.2	25.7	c1ccc(-n2nc(OC[C@H]3CCNC3)c3ccccc32)cc1 [Example 22, (S)-1-Phenyl-3-(pyrrolidin-3-ylmethoxy)-1H-indazole hydrochloride]
81	30	Fc1ccc(-n2nc(OC3CCNCC3)c3ccccc32)cc1F [Example 34, 1-(3,4-Difluoro-phenyl)-3-(piperidin-4-yloxy)-1H-indazole hydrochloride]
82.6	24	Fc1ccc(-n2nc(OC[C@H]3CCNC3)c3ccccc32)cc1F [Example 35, (S)-1-(3,4-Difluoro-phenyl)-3-(pyrrolidin-3-ylmethoxy)-1H-indazole hydrochloride]
